Experiments:
NTUB1 cells [1] = assay: MTT cytotoxicity assay, NTUB1 cells; format: cell-based, human; details: for IC50: mean ± SD, n = 3-5
From the text: (§1) The cell lines of the present invention were an human urothelial carcinoma cell line (NTUB1), a human prostate cancer cell line (PC3), a human lung adenocarcinoma epithelial cell line (A549) and a SV-40 immortalized human uroepithelial cell line (SV-HUC1). However, the cell lines applied in the present invention includes but not limit in NTUB1, PC3, A549 and SV-HUC1 cells. Other cell lines having the same characteristics or not exactly the same characteristics are able to be used in the present invention. NTUB1, PC3 and A549 cells were maintained in RPMI 1640 and SV-HUC1 cells were maintained in F12 medium supplemented with 10% fetal bovine serum (FBS), 100 unit/mL penicillin-G, 100 μg/mL streptomycin and 2 mM glutamine. The cells were cultured at 37° C. in a humidified atmosphere containing 5% carbon dioxide.
(§2) The cytotoxic effect of compounds 1 to 18 of the present invention and cisplatin (positive control) on the cell lines was evaluated using 3-[4,5-dimethylthiazol-2-yl]-2,5-diphenyltetrazolium bromide (MTT) assay. Briefly, the cells were plated at a density of 1800 cells/well in 96-well plates and incubated in the presence of graded concentrations of compounds 1 to 18 and cisplatin at 37° C. for 72 hours. At the end of the culture period, 50 μL of MTT ([…] in PBS) was added to each well and allowed to react for 3 hours. Following centrifugation of plates at 1000 g for 10 minutes, media were removed and 150 μL dimethyl sulfoxide (DMSO) were added to each well. The proportions of surviving cells were determined by absorbance spectrometry at 540 nm. The cell viability was expressed as a percentage to the viable cells of control culture condition. The IC50 value of each group were calculated by the median-effect analysis and presented as mean±standard deviation (SD).

PC3 cells [2] = assay: MTT cytotoxicity assay, PC3 cells; format: cell-based, human; details: for IC50: mean ± SD, n = 3-5
From the text: as §1, §2

NTUB1 cells [3] = assay: Cell cycle analysis (propidium iodide, flow cytometer), NTUB1 cells; format: cell-based, human; details: 24 hours, FIG. 2
Method: (§3) DNA content was determined following propidium iodide (PI) staining of cells. Briefly, 6×10^5 cells were plated and treated with 20 μM cisplatin and various concentrations of compounds 11 and 15 for 24 hours, respectively. These cells were harvested by trypsinization, washed with 1×PBS, and fixed in ice-cold MeOH at −20° C. After overnight incubation, the cells were washed with PBS and incubated with 50 μg/mL propidium iodide and 50 μg/mL RNase A in PBS at room temperature for 30 minutes. The fractions of cells in each phase of cell cycle were analyzed using flow cytometer.

PC3 cells [4] = assay: Cell cycle analysis (propidium iodide, flow cytometer), PC3 cells; format: cell-based, human; details: FIG. 3
Method: as §3

melting point [°C]	Compound	IC50 (NTUB1 cells [1]; 72 hours) [µM]	IC50 (PC3 cells [2]; 72 hours) [µM]	IC50 (NTUB1 cells [1]; Homo sapiens, NTUB1, 72 hours) [µM]	IC50 (PC3 cells [2]; Homo sapiens, PC-3, 72 hours) [µM]	other results
–	4-(2-methylethyl)carbamoyl-2′,5′-dimethoxychalcone [Compound 11]	1.97 ± 0.39	1.58 ± 0.08	–	–	cytotoxicity against NTUB1 cells (in words) (NTUB1 cells [1]): significantly enhanced the cytotoxicity; cytotoxicity against PC3 cells (in words) (PC3 cells [2]): significantly enhanced the cytotoxicity; apoptotic cell death (NTUB1 cells [3]; NTUB1, 1 μM): increase in apoptotic cell death; cell cycle phase arrest (NTUB1 cells [3]; NTUB1, 1 μM, vs control): induced G1 phase arrest; apoptotic cells death (PC3 cells [4]; PC3, 0.3 μM): increase of the apoptotic cells death; apoptotic cells (PC3 cells [4]; PC3, 1 μM): increase of apoptotic cells
118 to 119	CCOC(=O)c1ccc(/C=C/C(=O)c2cc(OC)ccc2OC)cc1 (hydrate or solvate) [Compound 3, 4-ethoxycarbonyl-2′,5′-dimethoxychalcone]	–	–	–	–	–
–	N.N.[Cl][Pt][Cl] [Cisplatin, cisplatin, reference compound]	3.27 ± 0.1	4.56 ± 0.76	–	–	cell cycle distribution (NTUB1 cells [3]; NTUB1, 20 μM): accumulation of cells in G1 and S phases; sub-G1 population (NTUB1 cells [3]; NTUB1, 20 μM): increase of the population of sub-G1 phase; apoptotic cell death (PC3 cells [4]; PC3, 20 μM, 24 hours): increase of apoptotic cell death; cell cycle distribution (PC3 cells [4]; PC3, 20 μM, 24 hours): accumulation of cells in S phase
214 to 215	COc1ccc(OC)c(C(=O)/C=C/c2ccc(C(=O)O)cc2)c1 [Compound 1, 4-carboxyl-2′,5′-dimethoxychalcone]	–	–	5.7 ± 0.68	7.24 ± 0.58	cytotoxicity against NTUB1 cells (in words) (NTUB1 cells [1]): significantly cytotoxic activities
118 to 119	COC(=O)c1ccc(/C=C/C(=O)c2cc(OC)ccc2OC)cc1 [Compound 2, 4-methoxycarbonyl-2′,5′-dimethoxychalcone]	–	–	3.51 ± 0.45	4.85 ± 0.11	–
–	CCOC(=O)c1ccc(/C=C/C(=O)c2cc(OC)ccc2OC)cc1 [Compound 3, 4-ethoxycarbonyl-2′,5′-dimethoxychalcone]	–	–	4.49 ± 0.98	5.7 ± 0.43	–
–	CCCOC(=O)c1ccc(C=CC(=O)c2cc(OC)ccc2OC)cc1 [Compound 4, propoxycarbonyl-2′,5′-dimethoxychalcone]	6.01 ± 0.3	26.9	–	–	–
–	COc1ccc(OC)c(C(=O)/C=C/c2ccc(C(=O)OC(C)C)cc2)c1 [Compound 5, 4-isopropoxycarbonyl-2′,5′-dimethoxychalcone]	–	–	4.42 ± 0.5	6.74 ± 1.34	–
–	COc1ccc(OC)c(C(=O)/C=C/c2ccc(C(=O)OCc3ccccc3)cc2)c1 [Compound 6, 4-benzyloxycarbonyl-2′,5′-dimethoxychalcone]	–	–	13.3 ± 2.86	17.9 ± 0.5	–
–	COc1ccc(OC)c(C(=O)/C=C/c2ccc(C(=O)OCC=C(C)C)cc2)c1 [Compound 7, 4-(3-methyl-but-2-enyloxycarbonyl)-2′,5′-dimethoxychalcone]	–	–	13.4 ± 0.78	> 50	–
